Assay results reported in article PMC4832832 (Archiv Der Pharmazie, 2015).
Entries after “also recorded” stand apart in the source; their conditions may differ. Like-named read-outs stand apart in the source and are kept apart here.

How the values were obtained:
[1] = tested on: Vesicular stomatitis virus; format: cell-based; conditions: for EC50: read-out: EC50 Vesicular stomatitis virus
Coxsackie virus B4 [2] = format: cell-based; conditions: for EC50: read-out: EC50 Coxsackie virus B4, reduce virus-induced cytopathogenicity by 50%
HeLa cells = conditions: HeLa cell cultures
[3] = tested on: Respiratory syncytial virus; format: cell-based; conditions: for inhibitory activity against respiratory syncytial virus (in words): HeLa cells
Coxsackie virus B4 [4] = format: cell-based; conditions: Vero cell cultures
Vero cells = conditions: Vero cell cultures
[5] = tested on: Varicella-zoster virus (VZV) TK+(Oka strain); format: cell-based; conditions: for activity against TK+ VZV strain (in words): HEL cells; for activity against varicella‐zoster virus (in words): strain not given
[6] = tested on: Varicella-zoster virus (VZV) TK-(Oka strain); format: cell-based; conditions: HEL cells
Sindbis virus = experiment: microbe, parasite or virus in culture; format: cell-based
Punta Toro virus = experiment: microbe, parasite or virus in culture; format: cell-based
Reovirus‐1 = experiment: organism not typed; format: cell-based
Parainfluenza‐3 virus = experiment: organism not typed; format: cell-based
[7] = microscopically detectable alteration of normal cell morphology
[8] = HeLa cell cultures, unit of the DS-10.000 line
[9] = Vero cell cultures, unit of the DS-10.000 line

Diethyl [(4‐(1‐(2,3,5‐tri‐O‐benzoyl‐β‐D‐ribofuranos‐1‐yl)‐1,2,3‐triazol‐4‐yl)phenyl)(4‐bromophenylamino)methyl]phosphonate [Compound 4d]
EC50 [1]: > 100 µM
EC50 (Coxsackie virus B4 [2]; HeLa cell cultures): > 100 µM
Minimum cytotoxic concentration (HeLa cells; [7]): >100 µM

Diethyl [(4‐(1‐(2,3,5‐tri‐O‐benzoyl‐β‐D‐ribofuranos‐1‐yl)‐1,2,3‐triazol‐4‐yl)phenyl)(2‐chlorophenylamino)methyl]phosphonate [Compound 4b]
EC50 [1]: > 100 µM
EC50 (Coxsackie virus B4 [2]; HeLa cell cultures): > 100 µM
inhibitory activity against respiratory syncytial virus (in words) [3]: slight inhibition; also recorded: modest inhibitory activity
Minimum cytotoxic concentration (HeLa cells; [7]): >100 µM

Diethyl [(4‐(1‐(2,3,5‐tri‐O‐benzoyl‐β‐D‐ribofuranos‐1‐yl)‐1,2,3‐triazol‐4‐yl)phenyl)(benzylamino)methyl]phosphonate [Compound 4h]
activity against Coxsackie virus B4 (in words) (Coxsackie virus B4 [2]; HeLa cells): no activity
activity against Coxsackie virus B4 (in words) (Coxsackie virus B4 [4]): some activity; also recorded: modest inhibitory activity
EC50 (Coxsackie virus B4 [4]; read-out: EC50 Coxsackie virus B4, reduce virus-induced cytopathogenicity by 50%): 20 µM
Minimum cytotoxic concentration (Vero cells; [7]): >100 µM

Diethyl [(4‐(1‐(β‐D‐ribofuranos‐1‐yl)‐1,2,3‐triazol‐4‐yl)phenyl)(4‐chloro‐2‐methylphenylamino)methyl]phosphonate [Compound 5f]
activity against TK+ VZV strain (in words) [5]: weak activity
activity against varicella‐zoster virus (in words) [5]: modest activity
activity against TK− VZV strain (in words) [6]: weak activity

Diethyl [(4‐(1‐(β‐D‐ribofuranos‐1‐yl)‐1,2,3‐triazol‐4‐yl)phenyl)(2‐bromophenylamino)methyl]phosphonate [Compound 5c]
activity against TK+ VZV strain (in words) [5]: weak activity
activity against varicella‐zoster virus (in words) [5]: modest activity
activity against TK− VZV strain (in words) [6]: weak activity

Diethyl [(4‐(1‐(2,3,5‐tri‐O‐benzoyl‐β‐D‐ribofuranos‐1‐yl)‐1,2,3‐triazol‐4‐yl)phenyl)(2‐bromophenylamino)methyl]phosphonate [Compound 4c]
EC50 [1]: > 100 µM
EC50 (Coxsackie virus B4 [2]; HeLa cell cultures): > 100 µM
inhibitory activity against respiratory syncytial virus (in words) [3]: slight inhibition; also recorded: modest inhibitory activity
Minimum cytotoxic concentration (HeLa cells; [7]): >100 µM

Diethyl [(4‐(1‐(β‐D‐ribofuranos‐1‐yl)‐1,2,3‐triazol‐4‐yl)phenyl)(2‐naphthalenylamino)methyl]phosphonate [Compound 5g]
activity against TK+ VZV strain (in words) [5]: weak activity
activity against varicella‐zoster virus (in words) [5]: modest activity
activity against TK− VZV strain (in words) [6]: weak activity

dextran sulfate [DS‐10.000, reference compound]
EC50 Vesicular stomatitis virus [1]: 12 µg/mL
EC50 Coxsackie virus B4 (Coxsackie virus B4 [2]; [8]): >100 µg/mL
EC50 Sindbis virus (Sindbis virus; [9]): 8.9 µg/mL
EC50 Punta Toro virus (Punta Toro virus; [9]): 8.9 µg/mL
EC50 Reovirus‐1 (Reovirus‐1; [9]): >100 µg/mL
EC50 Respiratory syncytial virus [3, 8]: 1.3 ± 0.7 µg/mL
EC50 Parainfluenza‐3 virus (Parainfluenza‐3 virus; [9]): >100 µg/mL
EC50 Coxsackie virus B4 (Coxsackie virus B4 [4]; unit of the DS-10.000 line): >100 µg/mL
Minimum cytotoxic concentration (Vero cells; unit of the DS-10.000 line): >100 µg/mL
Minimum cytotoxic concentration (HeLa cells; unit of the DS-10.000 line): >100 µg/mL

NC(=O)c1ncn([C@@H]2O[C@H](CO)[C@@H](O)[C@H]2O)n1 [Ribavirin, ribavirin]
EC50 (Sindbis virus; Sindbis virus, Vero, read-out: EC50 Sindbis virus): > 250 µM
EC50 (Punta Toro virus; Punta Toro virus, Vero, read-out: EC50 Punta Toro virus): 112 µM
EC50 (Reovirus‐1; Vero, read-out: EC50 Reovirus‐1): > 250 µM
EC50 (Parainfluenza‐3 virus; Vero, read-out: EC50 Parainfluenza‐3 virus): 85 µM
Minimum cytotoxic concentration (Vero cells; [7]): >250 µM
Minimum cytotoxic concentration (HeLa cells; [7]): >250 µM
